{
  "source": "patent US20100298551A1",
  "about": "“Methods Of Producing And Sequencing Modified Polynucleotides” (priority 2005, published 2010)",
  "biological_target": "T1, exo− E. coli Polymerase I, Klenow fragment (Escherichia coli, UniProt P00582, D355A/E357A)",
  "T1 construct": "12.5 U exo^− E. coli Polymerase I, Klenow fragment (Epicentre); purchased Epicentre",
  "T1 sequence (P00582 324-928 D355A/E357A)": "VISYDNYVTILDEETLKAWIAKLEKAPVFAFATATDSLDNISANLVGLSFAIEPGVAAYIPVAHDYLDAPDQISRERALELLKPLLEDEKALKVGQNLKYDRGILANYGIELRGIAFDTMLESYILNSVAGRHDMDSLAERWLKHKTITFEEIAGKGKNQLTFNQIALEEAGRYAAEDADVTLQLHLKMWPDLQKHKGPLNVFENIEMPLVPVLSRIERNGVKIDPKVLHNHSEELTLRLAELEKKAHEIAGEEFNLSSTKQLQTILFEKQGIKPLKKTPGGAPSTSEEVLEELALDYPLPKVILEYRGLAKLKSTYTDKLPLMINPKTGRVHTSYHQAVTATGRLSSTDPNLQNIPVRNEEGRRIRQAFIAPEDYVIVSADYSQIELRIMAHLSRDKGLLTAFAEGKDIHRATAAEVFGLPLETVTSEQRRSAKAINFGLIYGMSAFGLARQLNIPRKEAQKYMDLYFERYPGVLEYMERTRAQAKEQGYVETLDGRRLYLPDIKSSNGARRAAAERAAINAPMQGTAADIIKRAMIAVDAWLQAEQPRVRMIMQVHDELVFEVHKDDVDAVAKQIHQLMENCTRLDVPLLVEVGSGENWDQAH",
  "assay": "Primer extension: incorporation of 3′ thiol-nucleoside triphosphate into a growing DNA strand by DNA polymerase",
  "type": "biochemical",
  "protocol": "DNA synthesis was performed on a single-stranded DNA template (5′-TTTTTTCTAAGGTAGCGACTGTCCTATACAGACTGACAAAAAAAGAGAATGAGGAACCCGGGGCAG-3′) (SEQ ID NO:1), which was labeled at its 5′ end with a dual biotin tag and was attached to a magnetic bead (FIG. 3B). Synthesis was primed using a primer (5′-CTGCCCCGGGTTCCTCATTCTCT-3′) (SEQ ID NO:2), which was complementary to a portion of the DNA template. The primer was labeled with Cy5 at its 5′ end. The DNA template contained 5 adenine nucleotides immediately downstream of the primer sequence. […]",
  "data": [
    {"smiles": "CSS[C@H]1C[C@H](n2cc(C)c(=O)[nH]c2=O)O[C@@H]1CO", "note": "[3′-deoxy-dithiomethyl thymidine]", "values": [
      {"measurement": "modified thymidine residues in the vast majority of reaction products", "setting": "higher concentration 1.0 mM (FIG. 3E)", "result": 5},
      {"measurement": "number of 3′-deoxy-dithiomethyl thymidine nucleotides incorporated into the DNA product", "setting": "template with 5 adenines downstream of primer, 37° C., 4.0 min", "result": "Up to five"}
    ]}
  ]
}
